# Source: the NIST ThermoML archive (doi:10.1021/je500395f)
# ± gives the expanded uncertainty stated by the source.
# Conditions: Fluid (supercritical or subcritical phases), Coaxial cylinder method
structure (smiles),measurement,setting,value
CCC [propane],thermal conductivity,"371.05 K, 4555 kPa",0.06855 ± 0.0027 W/m/K
same,thermal conductivity,"371.05 K, 4560 kPa",0.06824 ± 0.0026 W/m/K
same,thermal conductivity,"371.05 K, 4590 kPa",0.06782 ± 0.0026 W/m/K
same,thermal conductivity,"371.05 K, 4715 kPa",0.06718 ± 0.0026 W/m/K
same,thermal conductivity,"371.05 K, 4720 kPa",0.06705 ± 0.0026 W/m/K
same,thermal conductivity,"371.05 K, 4840 kPa",0.06668 ± 0.0026 W/m/K
same,thermal conductivity,"371.05 K, 5000 kPa",0.06707 ± 0.0026 W/m/K
same,thermal conductivity,"371.05 K, 5200 kPa",0.06747 ± 0.0026 W/m/K
same,thermal conductivity,"371.05 K, 5350 kPa",0.06773 ± 0.0026 W/m/K
same,thermal conductivity,"371.05 K, 5672 kPa",0.06829 ± 0.0027 W/m/K
same,thermal conductivity,"371.05 K, 6100 kPa",0.06917 ± 0.0027 W/m/K
same,thermal conductivity,"371.05 K, 6200 kPa",0.06927 ± 0.0027 W/m/K
same,thermal conductivity,"371.05 K, 6800 kPa",0.06996 ± 0.0027 W/m/K
same,thermal conductivity,"371.05 K, 7500 kPa",0.07147 ± 0.0027 W/m/K
same,thermal conductivity,"371.05 K, 8500 kPa",0.07339 ± 0.0028 W/m/K
same,thermal conductivity,"371.05 K, 8900 kPa",0.07424 ± 0.0028 W/m/K
same,thermal conductivity,"371.05 K, 9500 kPa",0.07498 ± 0.0029 W/m/K
same,thermal conductivity,"371.05 K, 11600 kPa",0.07756 ± 0.0029 W/m/K
same,thermal conductivity,"371.97 K, 3025 kPa",0.03301 ± 0.0015 W/m/K
same,thermal conductivity,"371.97 K, 3070 kPa",0.03313 ± 0.0015 W/m/K
same,thermal conductivity,"371.97 K, 3701 kPa",0.03655 ± 0.0016 W/m/K
same,thermal conductivity,"371.97 K, 3803 kPa",0.03783 ± 0.0017 W/m/K
same,thermal conductivity,"371.97 K, 4286 kPa",0.04983 ± 0.0021 W/m/K
same,thermal conductivity,"371.97 K, 4294 kPa",0.05055 ± 0.0021 W/m/K
same,thermal conductivity,"371.97 K, 4312 kPa",0.05267 ± 0.0023 W/m/K
same,thermal conductivity,"371.97 K, 4324 kPa",0.05459 ± 0.0024 W/m/K
same,thermal conductivity,"371.97 K, 4336 kPa",0.05724 ± 0.0027 W/m/K
same,thermal conductivity,"371.97 K, 4342 kPa",0.05915 ± 0.0028 W/m/K
same,thermal conductivity,"371.97 K, 4348 kPa",0.06124 ± 0.0028 W/m/K
same,thermal conductivity,"371.97 K, 4354 kPa",0.06361 ± 0.0027 W/m/K
same,thermal conductivity,"371.97 K, 4362 kPa",0.0676 ± 0.0028 W/m/K
same,thermal conductivity,"371.97 K, 4366 kPa",0.07025 ± 0.0029 W/m/K
same,thermal conductivity,"371.97 K, 4368 kPa",0.07149 ± 0.003 W/m/K
same,thermal conductivity,"371.97 K, 4370 kPa",0.07274 ± 0.003 W/m/K
same,thermal conductivity,"371.97 K, 4374 kPa",0.07488 ± 0.003 W/m/K
same,thermal conductivity,"371.97 K, 4378 kPa",0.07749 ± 0.0031 W/m/K
same,thermal conductivity,"371.97 K, 4380 kPa",0.07923 ± 0.0031 W/m/K
same,thermal conductivity,"371.97 K, 4382 kPa",0.07986 ± 0.0031 W/m/K
same,thermal conductivity,"371.97 K, 4384 kPa",0.08174 ± 0.0032 W/m/K
same,thermal conductivity,"371.97 K, 4386 kPa",0.08308 ± 0.0032 W/m/K
same,thermal conductivity,"371.97 K, 4388 kPa",0.08481 ± 0.0033 W/m/K
same,thermal conductivity,"371.97 K, 4390 kPa",0.08662 ± 0.0033 W/m/K
same,thermal conductivity,"371.97 K, 4392 kPa",0.08774 ± 0.0033 W/m/K
same,thermal conductivity,"371.97 K, 4394 kPa",0.08968 ± 0.0034 W/m/K
same,thermal conductivity,"371.97 K, 4396 kPa",0.09177 ± 0.0035 W/m/K
same,thermal conductivity,"371.97 K, 4398 kPa",0.09312 ± 0.0035 W/m/K
same,thermal conductivity,"371.97 K, 4400 kPa",0.09429 ± 0.0035 W/m/K
same,thermal conductivity,"371.97 K, 4402 kPa",0.09604 ± 0.0036 W/m/K
same,thermal conductivity,"371.97 K, 4404 kPa",0.09739 ± 0.0036 W/m/K
same,thermal conductivity,"371.97 K, 4406 kPa",0.09807 ± 0.0036 W/m/K
same,thermal conductivity,"371.97 K, 4408 kPa",0.09854 ± 0.0037 W/m/K
same,thermal conductivity,"371.97 K, 4410 kPa",0.09918 ± 0.0037 W/m/K
same,thermal conductivity,"371.97 K, 4412 kPa",0.09961 ± 0.0037 W/m/K
same,thermal conductivity,"371.97 K, 4414 kPa",0.09999 ± 0.0037 W/m/K
same,thermal conductivity,"371.97 K, 4416 kPa",0.1001 ± 0.0037 W/m/K
same,thermal conductivity,"371.97 K, 4418 kPa",0.1001 ± 0.0037 W/m/K
same,thermal conductivity,"371.97 K, 4420 kPa",0.09965 ± 0.0037 W/m/K
same,thermal conductivity,"371.97 K, 4425 kPa",0.09676 ± 0.0036 W/m/K
same,thermal conductivity,"371.97 K, 4430 kPa",0.09369 ± 0.0035 W/m/K
same,thermal conductivity,"371.97 K, 4435 kPa",0.09161 ± 0.0034 W/m/K
same,thermal conductivity,"371.97 K, 4440 kPa",0.08782 ± 0.0033 W/m/K
same,thermal conductivity,"371.97 K, 4445 kPa",0.08423 ± 0.0032 W/m/K
same,thermal conductivity,"371.97 K, 4450 kPa",0.08092 ± 0.0031 W/m/K
same,thermal conductivity,"371.97 K, 4455 kPa",0.07787 ± 0.003 W/m/K
same,thermal conductivity,"371.97 K, 4460 kPa",0.07642 ± 0.0029 W/m/K
same,thermal conductivity,"371.97 K, 4465 kPa",0.07505 ± 0.0029 W/m/K
same,thermal conductivity,"371.97 K, 4475 kPa",0.07322 ± 0.0028 W/m/K
same,thermal conductivity,"371.97 K, 4490 kPa",0.07226 ± 0.0028 W/m/K
same,thermal conductivity,"371.97 K, 4500 kPa",0.07021 ± 0.0027 W/m/K
same,thermal conductivity,"371.97 K, 4505 kPa",0.06997 ± 0.0027 W/m/K
same,thermal conductivity,"371.97 K, 4530 kPa",0.06877 ± 0.0027 W/m/K
same,thermal conductivity,"371.97 K, 4550 kPa",0.06759 ± 0.0026 W/m/K
same,thermal conductivity,"371.97 K, 4570 kPa",0.06665 ± 0.0026 W/m/K
same,thermal conductivity,"371.97 K, 4650 kPa",0.06636 ± 0.0026 W/m/K
same,thermal conductivity,"371.97 K, 4740 kPa",0.06618 ± 0.0026 W/m/K
same,thermal conductivity,"371.97 K, 4850 kPa",0.06602 ± 0.0026 W/m/K
same,thermal conductivity,"371.97 K, 5200 kPa",0.06643 ± 0.0026 W/m/K
same,thermal conductivity,"371.97 K, 5900 kPa",0.06801 ± 0.0026 W/m/K
same,thermal conductivity,"371.97 K, 6400 kPa",0.06923 ± 0.0027 W/m/K
same,thermal conductivity,"371.97 K, 6800 kPa",0.07002 ± 0.0027 W/m/K
same,thermal conductivity,"371.97 K, 7600 kPa",0.07152 ± 0.0027 W/m/K
same,thermal conductivity,"371.97 K, 8810 kPa",0.07269 ± 0.0028 W/m/K
same,thermal conductivity,"371.97 K, 15100 kPa",0.08067 ± 0.0031 W/m/K
same,thermal conductivity,"373.2 K, 3103 kPa",0.03319 ± 0.0015 W/m/K
same,thermal conductivity,"373.2 K, 3450 kPa",0.03488 ± 0.0016 W/m/K
same,thermal conductivity,"373.2 K, 3780 kPa",0.03746 ± 0.0017 W/m/K
same,thermal conductivity,"373.2 K, 3820 kPa",0.03788 ± 0.0017 W/m/K
same,thermal conductivity,"373.2 K, 4030 kPa",0.04085 ± 0.0018 W/m/K
same,thermal conductivity,"373.2 K, 4060 kPa",0.04149 ± 0.0018 W/m/K
same,thermal conductivity,"373.2 K, 4150 kPa",0.04361 ± 0.0019 W/m/K
same,thermal conductivity,"373.2 K, 4230 kPa",0.04611 ± 0.0019 W/m/K
same,thermal conductivity,"373.2 K, 4270 kPa",0.04756 ± 0.002 W/m/K
same,thermal conductivity,"373.2 K, 4346 kPa",0.05156 ± 0.0021 W/m/K
same,thermal conductivity,"373.2 K, 4384 kPa",0.05498 ± 0.0023 W/m/K
same,thermal conductivity,"373.2 K, 4404 kPa",0.05788 ± 0.0026 W/m/K
same,thermal conductivity,"373.2 K, 4416 kPa",0.05996 ± 0.0026 W/m/K
same,thermal conductivity,"373.2 K, 4428 kPa",0.0626 ± 0.0026 W/m/K
same,thermal conductivity,"373.2 K, 4436 kPa",0.06499 ± 0.0027 W/m/K
same,thermal conductivity,"373.2 K, 4444 kPa",0.06754 ± 0.0027 W/m/K
same,thermal conductivity,"373.2 K, 4450 kPa",0.06964 ± 0.0028 W/m/K
same,thermal conductivity,"373.2 K, 4452 kPa",0.07037 ± 0.0028 W/m/K
same,thermal conductivity,"373.2 K, 4462 kPa",0.07388 ± 0.0029 W/m/K
same,thermal conductivity,"373.2 K, 4466 kPa",0.07545 ± 0.0029 W/m/K
same,thermal conductivity,"373.2 K, 4470 kPa",0.07719 ± 0.003 W/m/K
same,thermal conductivity,"373.2 K, 4476 kPa",0.07958 ± 0.003 W/m/K
same,thermal conductivity,"373.2 K, 4482 kPa",0.08175 ± 0.0031 W/m/K
same,thermal conductivity,"373.2 K, 4484 kPa",0.0824 ± 0.0031 W/m/K
same,thermal conductivity,"373.2 K, 4486 kPa",0.08306 ± 0.0031 W/m/K
same,thermal conductivity,"373.2 K, 4494 kPa",0.08512 ± 0.0032 W/m/K
same,thermal conductivity,"373.2 K, 4496 kPa",0.08547 ± 0.0032 W/m/K
same,thermal conductivity,"373.2 K, 4498 kPa",0.08584 ± 0.0032 W/m/K
same,thermal conductivity,"373.2 K, 4500 kPa",0.0862 ± 0.0032 W/m/K
same,thermal conductivity,"373.2 K, 4502 kPa",0.08638 ± 0.0032 W/m/K
same,thermal conductivity,"373.2 K, 4504 kPa",0.08656 ± 0.0032 W/m/K
same,thermal conductivity,"373.2 K, 4506 kPa",0.08685 ± 0.0032 W/m/K
same,thermal conductivity,"373.2 K, 4508 kPa",0.08693 ± 0.0032 W/m/K
same,thermal conductivity,"373.2 K, 4510 kPa",0.0873 ± 0.0033 W/m/K
same,thermal conductivity,"373.2 K, 4518 kPa",0.08768 ± 0.0033 W/m/K
same,thermal conductivity,"373.2 K, 4524 kPa",0.08658 ± 0.0032 W/m/K
same,thermal conductivity,"373.2 K, 4530 kPa",0.08552 ± 0.0032 W/m/K
same,thermal conductivity,"373.2 K, 4536 kPa",0.08417 ± 0.0032 W/m/K
same,thermal conductivity,"373.2 K, 4544 kPa",0.08185 ± 0.0031 W/m/K
same,thermal conductivity,"373.2 K, 4550 kPa",0.07994 ± 0.003 W/m/K
same,thermal conductivity,"373.2 K, 4556 kPa",0.07815 ± 0.003 W/m/K
same,thermal conductivity,"373.2 K, 4564 kPa",0.07643 ± 0.0029 W/m/K
same,thermal conductivity,"373.2 K, 4568 kPa",0.07532 ± 0.0029 W/m/K
